The values that follow come from ChEMBL document CHEMBL5113554, “Dactylosporolides: Glycosylated Macrolides from Dactylosporangium fulvum” (J Nat Prod, 2022).

As a reminder, the inhibition is the share of the control response that was lost under treatment. The IC50 is the midpoint of a concentration-inhibition curve.

The test system of assay [1] is Plasmodium falciparum. The assay is described as follows: Antiparasitic activity against Plasmodium falciparum 3D7 infected in erythrocytes assessed as inhibition of parasite growth at 50 uM incubated for 48 hrs by SYBR Green I dye based fluorescence assay relative to control. The format is functional. The note with it: 3D7, Erythrocyte.
Assay [2] deals with Plasmodium falciparum. The assay is described as follows: Antiparasitic activity against Plasmodium falciparum 3D7 infected in erythrocytes assessed as parasite growth inhibition incubated for 48 hrs by SYBR Green I dye based fluorescence assay. The format is functional, organism-based. The note with it: 3D7, Erythrocyte.

Regarding `CO[C@@H]1C[C@H](O[C@H]2C[C@@H]3C[C@H](O)[C@@H](C)[C@](O)(C[C@@H](O)CCCC(=O)O[C@H](C[C@@H](O)[C@H](C)[C@@H](O)[C@@H](C)[C@@H](O)CC(C)C)[C@@H](C)/C=C/C=C/[C@@H](O)C2)O3)O[C@H](C)[C@H]1O`, the inhibition at 50 µM in the assay on Plasmodium falciparum [1] came out at 34%. Moreover, the IC50 with Plasmodium falciparum [2] is > 50 µM.
Regarding `CCN(CC)CCCC(C)Nc1ccnc2cc(Cl)ccc12` (configuration not stated) [CHLOROQUINE], the inhibition at 50 µM with Plasmodium falciparum [1] came to 100%.
In the case of `CO[C@H]1[C@H](O)C[C@H](O[C@H]2[C@H](O)C[C@H](O[C@H]3CC[C@H](O[C@@H](CC(C)C)[C@H](C)[C@H](O)[C@@H](C)[C@H](O)C[C@H]4OC(=O)CCC[C@H](O)C[C@]5(O)O[C@H](C[C@H](O[C@H]6C[C@@H](OC)[C@H](O)[C@@H](C)O6)C[C@H](O)/C=C/C=C/[C@@H]4C)C[C@H](O)[C@H]5C)O[C@@H]3C)O[C@@H]2C)O[C@@H]1C`, the inhibition at 50 µM with Plasmodium falciparum [1] is 95.6%. Moreover, the IC50 in the assay with Plasmodium falciparum [2] worked out at 16 µM.
For the compound `CO[C@@H]1C[C@H](O[C@H]2C[C@@H]3C[C@H](O)[C@@H](C)[C@](O)(C[C@@H](O)CCCC(=O)O[C@H](C[C@@H](O)[C@H](C)[C@@H](O)[C@@H](C)[C@H](CC(C)C)O[C@H]4CC[C@H](O[C@H]5C[C@@H](O)[C@H](O[C@H]6C[C@@H](O)[C@H](O)[C@@H](C)O6)[C@@H](C)O5)[C@@H](C)O4)[C@@H](C)/C=C/C=C/[C@@H](O)C2)O3)O[C@H](C)[C@H]1O`, the inhibition at 50 µM with Plasmodium falciparum [1] was found to be 74.8%. Also, in the assay on Plasmodium falciparum [2], the IC50 was 32 µM.
